Laboratory results reported in US10633419B2, “Immunomodulators” (BRISTOL-MYERS SQUIBB COMPANY, priority 2014, dated 2020).
Positions of bridges follow the written chain, without caps; N, C: chain ends. Non-standard residues stand in square brackets, D forms with d. Residues, ends and D or L forms follow the SMILES beside them. *: point of attachment. X6 = O=C(O)CCCCCCCCCCCCCCCCC(=O)N[C@@H](CCC(=O)NCCCOCCOCCOCCCN*)C(=O)O; X4 = O=C(O)CCCCCCCCCCCCCCCCC(=O)N[C@@H](CC(=O)NCCCOCCOCCOCCCN*)C(=O)O; X11 = O=C(O)CCCCCCCCCCCCC(=O)N[C@@H](CCC(=O)NCCCOCCOCCOCCCN*)C(=O)O; X15 = O=C(O)CCCCCCCCCCNC(=O)CCCCCCCCCCNC(=O)CCC(=O)NCCCOCCOCCOCCCN*; Trp(1-CH2COOH) = N[C@@H](Cc1cn(CC(=O)O)c2ccccc12)C(=O)O; X14 = O=C(O)CCCCCCCCCCNC(=O)CCC(=O)NCCCOCCOCCOCCCN*; d(cisHyp) = O=C(O)[C@H]1C[C@@H](O)CN1; NH(CH2)12COOH = O=C(O)CCCCCCCCCCCCN*; cisHyp = O=C(O)[C@@H]1C[C@H](O)CN1; Hyp = O=C(O)[C@@H]1C[C@@H](O)CN1; dHyp = O=C(O)[C@H]1C[C@H](O)CN1; Undecanoyl = CCCCCCCCCCC(=O)*; NMeNle = CCCC[C@H](NC)C(=O)O; NMeA = CN[C@@H](C)C(=O)O; Pra = C#CC[C@H](N)C(=O)O; Aun = NCCCCCCCCCCC(=O)O; Dab = NCC[C@H](N)C(=O)O; Dap = NC[C@H](N)C(=O)O

Biological target: T1, PD-L1 (Homo sapiens, UniProt Q9NZQ7)
T1 construct: hPDL1(19-239)-TVMV-His; made in house; host or cells: HEK293T
T1 sequence (Q9NZQ7 with tags, fused parts or gaps): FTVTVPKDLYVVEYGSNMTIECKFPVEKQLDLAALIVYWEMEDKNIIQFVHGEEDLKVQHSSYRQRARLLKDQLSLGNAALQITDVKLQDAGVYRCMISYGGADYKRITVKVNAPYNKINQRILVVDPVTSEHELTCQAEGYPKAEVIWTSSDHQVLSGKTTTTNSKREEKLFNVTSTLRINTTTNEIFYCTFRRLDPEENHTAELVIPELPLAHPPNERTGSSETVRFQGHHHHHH
Test: PD-1/PD-L1 Homogenous Time-Resolved Fluorescence (HTRF) binding assay (PD-1-Ig/PD-L1-His)
Conditions: inhibition of PD-1-Ig binding to PD-L1-TVMV-His; value given as number; read-out: HTRF IC50
Summary of the method: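 Inhibitors pre-incubated 15 min with PD-L1-His (10 nM final), then PD-1-Ig (20 nM final) added for 15 min in dPBS/0.1% BSA/0.05% Tween-20. Eu-cryptate anti-Ig (1 nM) and APC anti-His (20 nM) added, 30 min equilibration, 665/620 nm HTRF ratio read.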

Row | IC50 [nM] | Structure (SMILES)
1 | 7.1 | CCCC[C@H]1C(=O)N(C)[C@@H](CCCC)C(=O)N[C@@H](CC(C)C)C(=O)N[C@H](C(=O)NCCCOCCOCCOCCCNC(=O)CCC(=O)NCCCCCCCCCCC(=O)O)CSCC(=O)N[C@@H](Cc2ccc(O)cc2)C(=O)N(C)[C@@H](C)C(=O)N[C@@H](CC(N)=O)C(=O)N2CCC[C@H]2C(=O)N[C@@H](Cc2cnc[nH]2)C(=O)N[C@@H](CCC(=O)O)C(=O)N2C[C@H](O)C[C@H]2C(=O)N[C@@H](Cc2c[nH]c3ccccc23)C(=O)N[C@@H](CCN)C(=O)N[C@@H](Cc2cn(CC(=O)O)c3ccccc23)C(=O)N1C [Example 11075] ({CH2CO}-Y[NMeA]NPHE[Hyp]W[Dab][Trp(1-CH2COOH)][NMeNle][NMeNle]LC-X14; thioether N-14)

Same assay, conditions: inhibition of PD-1-Ig binding to PD-L1-TVMV-His; value given as range class; read-out: HTRF IC50

Row | IC50 [nM] | Structure (SMILES)
2 | 10 to 99 | CCCC[C@H]1C(=O)N(C)[C@@H](CCCC)C(=O)N[C@@H](CC(C)C)C(=O)N[C@H](C(=O)NCC(=O)NCC(=O)NCC(=O)NCCCCCCCCCCC(=O)O)CSCC(=O)N[C@@H](Cc2ccc(O)cc2)C(=O)N(C)[C@@H](C)C(=O)N[C@@H](CC(N)=O)C(=O)N2CCC[C@H]2C(=O)N[C@@H](CN)C(=O)N[C@@H](CCC(=O)O)C(=O)N2C[C@H](O)C[C@H]2C(=O)N[C@@H](Cc2c[nH]c3ccccc23)C(=O)N[C@@H](CCN)C(=O)N[C@@H](Cc2cn(CC(=O)O)c3ccccc23)C(=O)N1C [Example 11093] ({CH2CO}-Y[NMeA]NP[Dap]E[Hyp]W[Dab][Trp(1-CH2COOH)][NMeNle][NMeNle]LCGGG[Aun]-OH; thioether N-14)
3 | 0.3 to 9.9 | CCCC[C@H]1C(=O)N(C)[C@@H](CCCC)C(=O)N[C@@H](CC(C)C)C(=O)N[C@H](C(=O)NCC(=O)NCCCOCCOCCOCCCNC(=O)CC[C@H](NC(=O)CCCCCCCCCCCCC(=O)O)C(=O)O)CSCC(=O)N[C@@H](Cc2ccc(O)cc2)C(=O)N(C)[C@@H](C)C(=O)N[C@@H](CC(N)=O)C(=O)N2CCC[C@H]2C(=O)N[C@@H](CN)C(=O)N[C@@H](CC(C)C)C(=O)N2C[C@H](O)C[C@H]2C(=O)N[C@@H](Cc2c[nH]c3ccccc23)C(=O)N[C@@H](CCN)C(=O)N[C@@H](Cc2cn(CC(=O)O)c3ccccc23)C(=O)N1C [Example 11260] ({CH2CO}-Y[NMeA]NP[Dap]L[Hyp]W[Dab][Trp(1-CH2COOH)][NMeNle][NMeNle]LCG-X11; thioether N-14)
4 | 10 to 99 | CCCC[C@H]1C(=O)N(C)[C@@H](CCCC)C(=O)N[C@@H](CC(C)C)C(=O)N[C@H](C(=O)NCCCOCCOCCOCCCNC(=O)CCC(=O)NCCCCCCCCCCC(=O)NCCCCCCCCCCC(=O)O)CSCC(=O)N[C@@H](Cc2ccc(O)cc2)C(=O)N(C)[C@@H](C)C(=O)N[C@@H](CC(N)=O)C(=O)N2CCC[C@H]2C(=O)N[C@@H](CN)C(=O)N[C@@H](CCC(N)=O)C(=O)N2C[C@H](O)C[C@H]2C(=O)N[C@@H](Cc2c[nH]c3ccccc23)C(=O)N[C@@H](CO)C(=O)N[C@@H](Cc2cn(CC(=O)O)c3ccccc23)C(=O)N1C [Example 11087] ({CH2CO}-Y[NMeA]NP[Dap]Q[Hyp]WS[Trp(1-CH2COOH)][NMeNle][NMeNle]LC-X15; thioether N-14)
5 | 100 to 1600 | CCCC[C@H]1C(=O)N(C)[C@@H](CCCC)C(=O)N[C@@H](CC(C)C)C(=O)N[C@H](C(=O)NCC(=O)N[C@@H](CC(=O)NCCCOCCOCCOCCCNC(=O)CC[C@H](NC(=O)CCCCCCCCCCCCCCCCC(=O)O)C(=O)O)C(=O)O)CSCC(=O)N[C@@H](Cc2ccc(O)cc2)C(=O)N(C)[C@@H](C)C(=O)N[C@@H](CC(N)=O)C(=O)N2CCC[C@H]2C(=O)N[C@@H](CN)C(=O)N[C@@H](CC(C)C)C(=O)N2C[C@H](O)C[C@@H]2C(=O)N[C@@H](Cc2c[nH]c3ccccc23)C(=O)N[C@@H](CCN)C(=O)N[C@@H](Cc2cn(CC(=O)O)c3ccccc23)C(=O)N1C [Example 11160] ({CH2CO}-Y[NMeA]NP[Dap]L[d(cisHyp)]W[Dab][Trp(1-CH2COOH)][NMeNle][NMeNle]LCGD(X6)-OH; thioether N-14)
6 | 10 to 99 | CCCC[C@H]1C(=O)N(C)[C@@H](CCCC)C(=O)N[C@@H](CC(C)C)C(=O)N[C@@H](C(=O)NCC(=O)N[C@@H](CC(=O)O)C(=O)NCCCOCCOCCOCCCNC(=O)C[C@H](NC(=O)CCCCCCCCCCCCCCCCC(=O)O)C(=O)O)CSCC(=O)N[C@@H](Cc2ccc(O)cc2)C(=O)N(C)[C@@H](C)C(=O)N[C@@H](CC(N)=O)C(=O)N2CCC[C@@H]2C(=O)N[C@@H](CN)C(=O)N[C@@H](CC(C)C)C(=O)N2C[C@@H](O)C[C@@H]2C(=O)N[C@@H](Cc2c[nH]c3ccccc23)C(=O)N[C@@H](CCN)C(=O)N[C@@H](Cc2cn(CC(=O)O)c3ccccc23)C(=O)N1C [Example 11237] ({CH2CO}-Y[NMeA]N[dP][Dap]L[dHyp]W[Dab][Trp(1-CH2COOH)][NMeNle][NMeNle]L[dC]GD-X4; thioether N-14)

Further lines, the compound ahead of its results:

Row | Structure (SMILES) | IC50 [nM]
7 | CCCC[C@H]1C(=O)N(C)[C@@H](CCCC)C(=O)N[C@@H](CC(C)C)C(=O)N[C@H](C(=O)N[C@@H](Cc2cn(CCC(NC(=O)CCCCCCCCCCCCCCCCC(=O)O)C(=O)O)nn2)C(=O)O)CSCC(=O)N[C@@H](Cc2ccc(O)cc2)C(=O)N(C)[C@@H](C)C(=O)N[C@@H](CC(N)=O)C(=O)N2CCC[C@H]2C(=O)N[C@@H](CN)C(=O)N[C@@H](CC(C)C)C(=O)N2C[C@H](O)C[C@H]2C(=O)N[C@@H](Cc2c[nH]c3ccccc23)C(=O)N[C@@H](CCN)C(=O)N[C@@H](Cc2cn(CC(=O)O)c3ccccc23)C(=O)N1C (stereo partly shown) [Example 13129] | 10 to 99
8 | CCCC[C@H]1C(=O)N(C)[C@@H](CCCC)C(=O)N[C@@H](CC(C)C)C(=O)N[C@H](C(=O)NCC(=O)NCC(=O)NCC(=O)NCCCCCCCCCCC(=O)O)CSCC(=O)N[C@@H](Cc2ccc(O)cc2)C(=O)N(C)[C@@H](C)C(=O)N[C@@H](CC(=O)O)C(=O)N2CCC[C@H]2C(=O)N[C@@H](CN)C(=O)N[C@@H](CC(C)C)C(=O)N2C[C@H](O)C[C@H]2C(=O)N[C@@H](Cc2c[nH]c3ccccc23)C(=O)N[C@@H](CCN)C(=O)N[C@@H](Cc2cn(CC(=O)O)c3ccccc23)C(=O)N1C [Example 11096] ({CH2CO}-Y[NMeA]DP[Dap]L[Hyp]W[Dab][Trp(1-CH2COOH)][NMeNle][NMeNle]LCGGG[Aun]-OH; thioether N-14) | 10 to 99
9 | C#CC[C@H](NC(=O)[C@@H]1CSCC(=O)N[C@@H](Cc2ccc(O)cc2)C(=O)N(C)[C@@H](C)C(=O)N[C@@H](CC(N)=O)C(=O)N2CCC[C@H]2C(=O)N[C@@H](CN)C(=O)N[C@@H](CC(C)C)C(=O)N2C[C@H](O)C[C@H]2C(=O)N[C@@H](Cc2c[nH]c3ccccc23)C(=O)N[C@@H](CCN)C(=O)N[C@@H](Cc2cn(CC(=O)O)c3ccccc23)C(=O)N(C)[C@@H](CCCC)C(=O)N(C)[C@@H](CCCC)C(=O)N[C@@H](CCC(=O)O)C(=O)N1)C(=O)O [INT130AG] ({CH2CO}-Y[NMeA]NP[Dap]L[Hyp]W[Dab][Trp(1-CH2COOH)][NMeNle][NMeNle]EC[Pra]-OH; thioether N-14) | 0.3 to 9.9
10 | CCCCCCCCCCC(=O)NCCCC[C@H](NC(=O)CNC(=O)[C@@H]1CSCC(=O)N[C@@H](Cc2ccc(O)cc2)C(=O)N(C)[C@@H](C)C(=O)N[C@@H](CC(N)=O)C(=O)N2CCC[C@H]2C(=O)N[C@@H](Cc2cnc[nH]2)C(=O)N[C@@H](CCC(=O)O)C(=O)N2C[C@H](O)C[C@H]2C(=O)N[C@@H](Cc2c[nH]c3ccccc23)C(=O)N[C@@H](CCN)C(=O)N[C@@H](Cc2c[nH]c3ccccc23)C(=O)N(C)[C@@H](CCCC)C(=O)N(C)[C@@H](CCCC)C(=O)N[C@@H](CCN)C(=O)N1)C(N)=O [Example 11007] ({CH2CO}-Y[NMeA]NPHE[Hyp]W[Dab]W[NMeNle][NMeNle][Dab]CGK(Undecanoyl)-NH2; thioether N-14) | 10 to 99
11 | C#CC[C@H](NC(=O)CNC(=O)[C@@H]1CSCC(=O)N[C@@H](Cc2ccc(O)cc2)C(=O)N(C)[C@@H](C)C(=O)N[C@@H](CC(N)=O)C(=O)N2CCC[C@H]2C(=O)N[C@@H](CN)C(=O)N[C@@H](CC(C)C)C(=O)N2C[C@H](O)C[C@H]2C(=O)N[C@@H](Cc2c[nH]c3ccccc23)C(=O)N[C@@H](CCN)C(=O)N[C@@H](Cc2cn(CC(=O)O)c3ccccc23)C(=O)N(C)[C@@H](CCCC)C(=O)N(C)[C@@H](CCCC)C(=O)N[C@@H](CC(C)C)C(=O)N1)C(=O)O [INT 1300V] ({CH2CO}-Y[NMeA]NP[Dap]L[Hyp]W[Dab][Trp(1-CH2COOH)][NMeNle][NMeNle]LCG[Pra]-OH; thioether N-14) | 10 to 99
12 | CCCC[C@H]1C(=O)N(C)[C@@H](CCCC)C(=O)N[C@@H](CC(C)C)C(=O)C[C@H](C(=O)NCC(=O)N[C@@H](CC(=O)O)C(=O)NC[C@H](NC(=O)CCCCCCCCCCCCCCCCC(=O)O)C(=O)O)CSCC(=O)N[C@@H](Cc2ccc(O)cc2)C(=O)N(C)[C@@H](C)C(=O)N[C@@H](CC(N)=O)C(=O)N2CCC[C@H]2C(=O)N[C@@H](CN)C(=O)N[C@@H](CC(C)C)C(=O)N2C[C@H](O)C[C@H]2C(=O)N[C@@H](Cc2c[nH]c3ccccc23)C(=O)N[C@@H](CCN)C(=O)N[C@@H](Cc2cn(CC(=O)O)c3ccccc23)C(=O)N1C [Example 11185] | 10 to 99
13 | CCCC[C@H]1C(=O)N(C)[C@@H](CCCC)C(=O)N[C@@H](CC(C)C)C(=O)N[C@H](C(=O)NCCCCCCCCCCCCC(=O)O)CSCC(=O)N[C@@H](Cc2ccc(O)cc2)C(=O)N(C)[C@@H](C)C(=O)N[C@@H](CC(N)=O)C(=O)N2CCC[C@@H]2C(=O)N[C@@H](CN)C(=O)N[C@@H](CC(C)C)C(=O)N2C[C@@H](O)C[C@H]2C(=O)N[C@@H](Cc2c[nH]c3ccccc23)C(=O)N[C@@H](CCN)C(=O)N[C@@H](Cc2cn(CC(=O)O)c3ccccc23)C(=O)N1C [Example 11204] ({CH2CO}-Y[NMeA]N[dP][Dap]L[cisHyp]W[Dab][Trp(1-CH2COOH)][NMeNle][NMeNle]LC-{NH(CH2)12COOH}; thioether N-14) | 10 to 99
